“And” between values parts separate entries of the source, which are not always exact repeats. Equal entries are not always repeated.
Key:
Human = details: oral; cited from earlier work
juvenile Helix aspersa = experiment: Attractancy/repellency test, sectorised filter technique of Bowen and Antoine; assay type: in vivo; design: key to Final Position: R: roof of the container; T: test sector; C: control sector; details: for % Sector Eaten Control / % Sector Eaten Test: overnight; for repellency to snails (summary in words): arena trials, Helix aspersa
Method: One sector of the filter paper was used as the control and this was moistened with distilled water (1 ml). The other half was moistened with the test compound. […] The paper containing the copper oxalate was moistened with water after the addition of the chemical.
Filter sectors were placed on the lid of a plastic tub. The tub was inverted and was used to make a closed test arena. A small gap of 2 mm was left between the two filter sectors so as to prevent mixing of the test paper with the control. One juvenile Helix aspersa was introduced to the control sector and was allowed to remain in the arena overnight.
Attractancy/repellency was detected by dusting the filter paper with charcoal to reveal the slug trails. The results were quantified by placing a transparent grid over the test sectors and measuring the area covered by snail trails. Any phagostimulatory effect of the test compound was indicated by the consumption of the treated paper.

[1] = system: slug, Deroceras reticulatum; experiment: Protection of coated seeds fed to slugs (Example 2); assay type: in vivo; details: for % Seeds damaged Broad beans After 7 days: coated broad beans; for % Seeds damaged Pea seeds After 5 days / % Seeds damaged Pea seeds After 7 days: coated pea seeds; for % Seeds damaged Wheat seeds After 5 days / % Seeds damaged Wheat seeds After 7 days: coated wheat seeds
From the text: In the following experiment, various seeds were coated with copper oxalate and ferric potassium oxalate, respectively and fed to the slug, Deroceras reticulatum. The damage to these seeds was compared to damage to control seeds, which were left untreated.

[2] = system: slug, Deroceras reticulatum; experiment: Protection of wheat and pea seeds compared to BAYSOL and […] (Example 3); assay type: in vivo
Method: In the following experiment, the efficacy of copper oxalate for the protection of seeds was tested and compared to BAYSOL® and […]®. Seeds were coated with an aqueous suspension of copper oxalate, dried and fed to the slug, Deroceras reticulatum.

snail, Cernuella virgata = experiment: Repellency of copper oxalate in a PVA coating (paint) composition on paper towel (Example 4); assay type: in vivo
From the text: In the following experiment, the repellency of copper oxalate was investigated when incorporated in a paint composition. In this example, the carrier used was a common aqueous PVA solution sold in Australia under the brand name of Bond Crete.
Thirty-three 1 liter containers were used each with 3 layers of paper towel covering the bottom of the container. Half of the uppermost surface of each of the paper towels was coated with a solution made from 1 part copper oxalate: 10 parts water: 1 part PVA emulsion. This coating was applied at a rate of about 2 ml per 100 cm2 and allowed to dry. The towel was then moistened with approximately 20 ml of water. One snail, Cernuella virgata, was placed in the centre of the paper towels at the border of the coated and the uncoated half in each container. […] The snails consumed some of the untreated paper. […] After 7 days, the number of snails on the treated and untreated sections of the paper towel were counted, together with the number on the sides and lid of the container.

Rat = details: oral; cited from earlier work
[3] = after 7 days, 33 containers with one snail each, same coating

Compound: [Cu+2].[OH-].[OH-] [Copper hydroxide]
- LD50 (Human) (Human): 200 mg/kg

Compound: O=C([O-])C(=O)[O-].[Cu+2] [Copper oxalate, copper oxalate]
- % Sector Eaten Control (juvenile Helix aspersa; 1.61 mg/cm2, control sector of same arena): 4%
- Final Position (juvenile Helix aspersa; 1.61 mg/cm2, overnight): R
- % Sector Eaten Test (juvenile Helix aspersa; 1.61 mg/cm2, test sector): 0%
- % Covered Control (juvenile Helix aspersa; 1.61 mg/cm2, trail cover of control sector of same arena): 88%
- % Covered Test (juvenile Helix aspersa; 1.61 mg/cm2, trail cover of test sector): 4.4%
- % Sector Eaten Control (juvenile Helix aspersa; 2.11 mg/cm2, control sector of same arena): 5%
- Final Position (juvenile Helix aspersa; 2.11 mg/cm2, overnight): R
- % Sector Eaten Test (juvenile Helix aspersa; 2.11 mg/cm2, test sector): 0%
- % Covered Control (juvenile Helix aspersa; 2.11 mg/cm2, trail cover of control sector of same arena): 71.1%
- % Covered Test (juvenile Helix aspersa; 2.11 mg/cm2, trail cover of test sector): 0%
- % Sector Eaten Control (juvenile Helix aspersa; 2.43 mg/cm2, control sector of same arena): 2%
- Final Position (juvenile Helix aspersa; 2.43 mg/cm2, overnight): R
- % Sector Eaten Test (juvenile Helix aspersa; 2.43 mg/cm2, test sector): 0%
- % Covered Control (juvenile Helix aspersa; 2.43 mg/cm2, trail cover of control sector of same arena): 68.9%
- % Covered Test (juvenile Helix aspersa; 2.43 mg/cm2, trail cover of test sector): 0%
- % Sector Eaten Control (juvenile Helix aspersa; 2.47 mg/cm2, control sector of same arena): 5%
- Final Position (juvenile Helix aspersa; 2.47 mg/cm2, overnight): R
- % Sector Eaten Test (juvenile Helix aspersa; 2.47 mg/cm2, test sector): 0%
- % Covered Control (juvenile Helix aspersa; 2.47 mg/cm2, trail cover of control sector of same arena): 86.7%
- % Covered Test (juvenile Helix aspersa; 2.47 mg/cm2, trail cover of test sector): 0%
- % Sector Eaten Control (juvenile Helix aspersa; 3.19 mg/cm2, control sector of same arena): 2%
- Final Position (juvenile Helix aspersa; 3.19 mg/cm2, overnight): C
- % Sector Eaten Test (juvenile Helix aspersa; 3.19 mg/cm2, test sector): 0%
- % Covered Control (juvenile Helix aspersa; 3.19 mg/cm2, trail cover of control sector of same arena): 88%
- % Covered Test (juvenile Helix aspersa; 3.19 mg/cm2, trail cover of test sector): 0%
- % Sector Eaten Control (juvenile Helix aspersa; 3.46 mg/cm2, control sector of same arena): 1%
- Final Position (juvenile Helix aspersa; 3.46 mg/cm2, overnight): R
- % Sector Eaten Test (juvenile Helix aspersa; 3.46 mg/cm2, test sector): 0%
- % Covered Control (juvenile Helix aspersa; 3.46 mg/cm2, trail cover of control sector of same arena): 66.7%
- % Covered Test (juvenile Helix aspersa; 3.46 mg/cm2, trail cover of test sector): 4.4%
- repellency to snails (summary in words) (juvenile Helix aspersa): strongly repelled
- % Seeds damaged Broad beans After 7 days [1]: 5%
- % Seeds damaged Pea seeds After 5 days [1]: 7%
- % Seeds damaged Pea seeds After 7 days [1]: 7%
- % Seeds damaged Wheat seeds After 5 days [1]: 0%
- % Seeds damaged Wheat seeds After 7 days [1]: 2%
- slug repellency for seeds (summary in words) ([1]; wheat and pea seeds): very effective slug repellent
- % Seeds damaged Pea seeds After 7 days ([2]; pea seeds, 7 days): 8%
- % Seeds damaged Wheat seeds After 9 days ([2]; wheat seeds, 9 days): 10%
- repellency in a coating composition (summary in words) (snail, Cernuella virgata; PVA coating composition): functions effectively as a mollusc repellent
- No. of snails in area: On lid of container (snail, Cernuella virgata; after 7 days, 33 containers with one snail each, coating 1 part copper oxalate: 10 parts water: 1 part PVA emulsion): 1
- No. of snails in area: On Treated half of paper (snail, Cernuella virgata; [3]): 8
- No. of snails in area: On side of container (snail, Cernuella virgata; [3]): 1
- No. of snails in area: On untreated half of paper (snail, Cernuella virgata; [3]): 23
- consumption of the treated paper (snail, Cernuella virgata; coated half of paper towel, 7 days): No consumption

Compound: [Cl-].[Cu+2].[Cu+2].[OH-].[OH-].[OH-] [Copper oxychloride]
- LD50 (Rat) (Rat): 700 mg/kg

Compound: O=C([O-])C(=O)[O-].O=C([O-])C(=O)[O-].O=C([O-])C(=O)[O-].[Fe+3].[K+].[K+].[K+] [Ferric potassium oxalate, ferric potassium oxalate]
- % Seeds damaged Broad beans After 7 days [1]: 0%
- % Seeds damaged Pea seeds After 5 days [1]: 15%
- % Seeds damaged Pea seeds After 7 days [1]: 17%
- % Seeds damaged Wheat seeds After 5 days [1]: 3%
- % Seeds damaged Wheat seeds After 7 days [1]: 20%

Compound: Copper acetate
- LD50 (Rat) (Rat): 595 mg/kg

Compound: cetyl tertiary ammonium bromide [CeTAB, reference compound]
- % Sector Eaten Control (juvenile Helix aspersa; 0.2 mg/cm2, control sector of same arena): 4% and 1% and 2%
- Final Position (juvenile Helix aspersa; 0.2 mg/cm2, overnight): R
- % Sector Eaten Test (juvenile Helix aspersa; 0.2 mg/cm2, test sector): 0%
- % Covered Control (juvenile Helix aspersa; 0.2 mg/cm2, trail cover of control sector of same arena): 77.8% and 75.6% and 86.7%
- % Sector Eaten Control (juvenile Helix aspersa; 2.0 mg/cm2, control sector of same arena): 4% and 5% and 3%
- Final Position (juvenile Helix aspersa; 2.0 mg/cm2, overnight): R
- % Sector Eaten Test (juvenile Helix aspersa; 2.0 mg/cm2, test sector): 0%
- % Covered Control (juvenile Helix aspersa; 2.0 mg/cm2, trail cover of control sector of same arena): 62.2% and 66.6% and 71.1%
- % Covered Test (juvenile Helix aspersa; 2.0 mg/cm2, trail cover of test sector): 0%
- repellency to snails (summary in words) (juvenile Helix aspersa): act as a repellent

— US6770674B1, “Mollusc repellent” (priority 1998, dated 2004)
